The values below are quoted from earlier work in patent publication US20150093449A1, “Method of Using Silicon Substituted Phosphates to Improve Healing of Bone and Soft Tissue” (priority 2009, published 2015).

The test system of this series is staph epidermis.

Consider silicon, for which the glycoprotein slime formation entry is on record as “inhibits”.
